Read-outs that look alike come from different tables or passages of the source.
Key:
Assay type in all cases: cell-based, human
[1] = system: Target C mRNA; experiment: RT-qPCR splicing assay panel, Target C canonical junction (CJ) mRNA; settings: Homo sapiens
Method in brief: (§1)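 Junction-specific RT-qPCR read the canonical exon-exon junction and the compound-induced alternative-exon junction, normalized to GAPDH, GUSB or PPIA and then to DMSO (2^(-ΔΔCt)). Input was lysate from A673 or K562 cells exposed for 24 h to compound up to 10 uM.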

[2] = system: MYB mRNA; experiment: RT-qPCR splicing assay, MYB canonical (CJ) and alternative (AJ) junction mRNA; settings: Homo sapiens; for AC50: read-out: MYB AJ (AC50, increase in AJ mRNA)
Method in brief: as §1

[3] = system: SMN2 mRNA; experiment: RT-qPCR splicing assay panel, SMN2 canonical junction (CJ) mRNA; settings: Homo sapiens
Method in brief: as §1

[4] = system: HTT mRNA; experiment: RT-qPCR splicing assay, HTT canonical (CJ) and alternative (AJ) junction mRNA; settings: Homo sapiens; for AC50: read-out: HTT AJ (AC50, increase in AJ mRNA)
Method in brief: as §1

[5] = canonical junction (CJ) mRNA, RT-qPCR panel, Table 4A, read-out: Target C, decrease in CJ mRNA levels, IC50
[6] = 24 h, Table 3A, A673 or K562 cells, 24 h treatment
[7] = 24 h, Table 3A, A673 or K562 cells, 24 h treatment, read-out: MYB CJ (IC50, decrease in CJ mRNA)
[8] = canonical junction (CJ) mRNA, RT-qPCR panel, Table 4A, read-out: MYB, decrease in CJ mRNA levels, IC50
[9] = canonical junction (CJ) mRNA, RT-qPCR panel, Table 4A, read-out: SMN2, decrease in CJ mRNA levels, IC50
[10] = 24 h, Table 3A, A673 or K562 cells, 24 h treatment, read-out: HTT CJ (IC50, decrease in CJ mRNA)
[11] = canonical junction (CJ) mRNA, RT-qPCR panel, Table 4A, read-out: HTT, decrease in CJ mRNA levels, IC50
[12] = 24 h, Table 3B, A673 or K562 cells, 24 h treatment

IC50 [1, 5] [nM] | IC50 [2, 7] [nM] | IC50 [2, 8] [nM] | IC50 [3, 9] [nM] | IC50 [4, 10] [nM] | IC50 [4, 11] [nM] | IC50 ([1]; Table 4B, gene panel, read-out: Target C (IC50, decrease in CJ mRNA levels)) [nM] | IC50 ([2]; 24 h, Table 3B, A673 or K562 cells, 24 h treatment, read-out: MYB CJ (IC50, decrease in CJ mRNA)) [nM] | IC50 ([2]; Table 4B, gene panel, read-out: MYB (IC50, decrease in CJ mRNA levels)) [nM] | IC50 ([3]; Table 4B, gene panel, read-out: SMN2 (IC50, decrease in CJ mRNA levels)) [nM] | IC50 ([4]; 24 h, Table 3B, A673 or K562 cells, 24 h treatment, read-out: HTT CJ (IC50, decrease in CJ mRNA)) [nM] | IC50 ([4]; Table 4B, gene panel, read-out: HTT (IC50, decrease in CJ mRNA levels)) [nM] | Compound | AC50 [2, 6] [nM] | AC50 [4, 6] [nM] | AC50 [2, 12] [nM] | AC50 [4, 12] [nM]
< 100 | < 100 | < 100 | < 100 | < 100 | < 100 | – | – | – | – | – | – | Cc1ncc(-c2ccc(-c3ccc(N4CC[C@@H](NCC5CC5)C4)nn3)c(O)c2)s1 [Compound 379, 2-{6-[(3R)-3-[(cyclopropylmethyl)amino]pyrrolidin-1-yl]pyridazin-3-yl}-5-(2-methyl-1,3-thiazol-5-yl)phenol] | < 100 | < 100 | – | –
1000 to 10000 | 1000 to 10000 | 1000 to 10000 | 100 to 1000 | 100 to 1000 | 100 to 1000 | – | – | – | – | – | – | NCCNC1CCN(c2ccc(-c3ccc(-c4cn[nH]c4)cc3O)nn2)C1 (centres unmarked) [Compound 208] | 100 to 1000 | 100 to 1000 | – | –
100 to 1000 | 100 to 1000 | 100 to 1000 | < 100 | < 100 | < 100 | – | – | – | – | – | – | COc1cc(-c2ccc(-c3ccc(N4CCC(N[C@H]5C[C@@H](O)C5)C4)nn3)c(O)c2)cnn1 (some centres unmarked) [Compound 403, 5-(6-methoxypyridazin-4-yl)-2-[6-(3-{[(1s,3s)-3-hydroxycyclobutyl]amino}pyrrolidin-1-yl)pyridazin-3-yl]phenol] | 1000 to 10000 | 100 to 1000 | – | –
1000 to 10000 | 1000 to 10000 | 1000 to 10000 | 100 to 1000 | 100 to 1000 | 100 to 1000 | – | – | – | – | – | – | Oc1cc(-c2ccc(-c3ccc(N4CC[C@H](NC5CCC5)C4)nn3)c(O)c2)cnn1 [Compound 420, 5-(4-{6-[(3S)-3-(cyclobutylamino)pyrrolidin-1-yl]pyridazin-3-yl}-3-hydroxyphenyl)pyridazin-3-ol] | > 10000 | 1000 to 10000 | – | –
< 100 | 100 to 1000 | 100 to 1000 | < 100 | < 100 | < 100 | – | – | – | – | – | – | Oc1cc(-c2cn[nH]c2)ccc1-c1ccc(N2CC[C@H](NC3CCC3)C2)nn1 [Compound 116, 2-{6-[(3S)-3-(cyclobutylamino)pyrrolidin-1-yl]pyridazin-3-yl}-5-(1H-pyrazol-4-yl)phenol] | 100 to 1000 | < 100 | – | –
100 to 1000 | 100 to 1000 | 100 to 1000 | < 100 | < 100 | < 100 | – | – | – | – | – | – | COc1cc(-c2ccc(-c3ccc(N4CCC(CNC5CCC5)C4)nn3)c(O)c2)cnn1 (centres unmarked) [Compound 348, 2-(6-{3-[(cyclobutylamino)methyl]pyrrolidin-1-yl}pyridazin-3-yl)-5-(6-methoxypyridazin-4-yl)phenol] | 1000 to 10000 | 100 to 1000 | – | –
> 10000 | > 10000 | > 10000 | 100 to 1000 | 100 to 1000 | 100 to 1000 | – | – | – | – | – | – | COc1cc(-c2ccc(-c3ccc(N4CC[C@H](N(CCF)C5CCC5)C4)nn3)c(O)c2)cnn1 [Compound 303] | > 10000 | 100 to 1000 | – | –
1000 to 10000 | 1000 to 10000 | 1000 to 10000 | 1000 to 10000 | 1000 to 10000 | 1000 to 10000 | – | – | – | – | – | – | COc1cncc(-c2ccc(-c3ccc(N4CC[C@H](NC5CCC5)C4)nn3)c(O)c2)c1 [Compound 304] | 1000 to 10000 | 1000 to 10000 | – | –

More lines, now with the values behind:

Compound | IC50 [1, 5] [nM] | IC50 [2, 7] [nM] | IC50 [2, 8] [nM] | IC50 [3, 9] [nM] | IC50 [4, 10] [nM] | IC50 [4, 11] [nM] | IC50 ([1]; Table 4B, gene panel, read-out: Target C (IC50, decrease in CJ mRNA levels)) [nM] | IC50 ([2]; 24 h, Table 3B, A673 or K562 cells, 24 h treatment, read-out: MYB CJ (IC50, decrease in CJ mRNA)) [nM] | IC50 ([2]; Table 4B, gene panel, read-out: MYB (IC50, decrease in CJ mRNA levels)) [nM] | IC50 ([3]; Table 4B, gene panel, read-out: SMN2 (IC50, decrease in CJ mRNA levels)) [nM] | IC50 ([4]; 24 h, Table 3B, A673 or K562 cells, 24 h treatment, read-out: HTT CJ (IC50, decrease in CJ mRNA)) [nM] | IC50 ([4]; Table 4B, gene panel, read-out: HTT (IC50, decrease in CJ mRNA levels)) [nM] | AC50 [2, 6] [nM] | AC50 [4, 6] [nM] | AC50 [2, 12] [nM] | AC50 [4, 12] [nM]
Cc1ncc(-c2cc(O)c(-c3ccc(N4CC[C@H](CNC5CCC5)C4)nn3)cc2F)s1 [Compound 454] | 100 to 1000 | – | 1000 to 10000 | < 100 | – | < 100 | – | – | – | – | – | – | – | – | – | –
COc1cc(-c2cc(O)c(-c3ccc(N4CC[C@](C)(NCC5CC5)C4)nn3)cc2F)cnn1 [Compound 452, 2-{6-[(3S)-3-[(cyclopropylmethyl)amino]-3-methylpyrrolidin-1-yl]pyridazin-3-yl}-4-fluoro-5-(6-methoxypyridazin-4-yl)phenol] | 100 to 1000 | – | 100 to 1000 | 100 to 1000 | – | < 100 | – | – | – | – | – | – | – | – | – | –
CC(C)(C)NC1CCN(c2ccc(-c3cc4oc(CC#N)nc4cc3O)nn2)C1 (centres unmarked) [Compound 820] | – | – | – | – | – | – | 1000 to 10000 | 1000 to 10000 | 1000 to 10000 | < 100 | 100 to 1000 | 100 to 1000 | – | – | 100 to 1000 | 100 to 1000
COc1cc(-c2cc(O)c(-c3ccc(N4CC[C@@H](NC5CC5)C4)nn3)cc2F)cnn1 [Compound 213, 2-{6-[(3R)-3-(cyclopropylamino)pyrrolidin-1-yl]pyridazin-3-yl}-4-fluoro-5-(6-methoxypyridazin-4-yl)phenol] | 1000 to 10000 | 100 to 1000 | 100 to 1000 | < 100 | 100 to 1000 | 100 to 1000 | – | – | – | – | – | – | 1000 to 10000 | 100 to 1000 | – | –
COc1cc(-c2cc(O)c(-c3ccc(N4CC[C@@H](NC5(C)CCC5)C4)nn3)cc2F)cnn1 [Compound 286] | 100 to 1000 | 1000 to 10000 | 1000 to 10000 | < 100 | < 100 | < 100 | – | – | – | – | – | – | 1000 to 10000 | 100 to 1000 | – | –
Cc1nc(C)c(-c2cc(O)c(-c3ccc(N4CC[C@@H](NC5CCC5)C4)nn3)cc2F)s1 [Compound 387] | 1000 to 10000 | 1000 to 10000 | 1000 to 10000 | 100 to 1000 | 100 to 1000 | 100 to 1000 | – | – | – | – | – | – | 1000 to 10000 | 1000 to 10000 | – | –
Cc1ncc(-c2cc(O)c(-c3ccc(N4CC[C@@H](N[C@@H](C)C5CC5)C4)nn3)cc2F)s1 [Compound 373] | < 100 | < 100 | < 100 | < 100 | < 100 | < 100 | – | – | – | – | – | – | < 100 | < 100 | – | –
Cc1ccc(-c2cc(O)c(-c3ccc(N4CC[C@@H](NC5CCC5)C4)nn3)cc2F)cn1 [Compound 222] | 1000 to 10000 | 100 to 1000 | 100 to 1000 | 100 to 1000 | 100 to 1000 | 100 to 1000 | – | – | – | – | – | – | 1000 to 10000 | 100 to 1000 | – | –
COc1cc(-c2ccc(-c3ccc(N4C[C@@H](F)[C@@H](NC(C)(C)C)C4)nn3)c(O)c2)cnn1 [Compound 218, 2-{6-[(3S,4R)-3-(tert-butylamino)-4-fluoropyrrolidin-1-yl]pyridazin-3-yl}-5-(6-methoxypyridazin-4-yl)phenol] | < 100 | < 100 | < 100 | < 100 | < 100 | < 100 | – | – | – | – | – | – | < 100 | < 100 | – | –
CC1(C)CC(Oc2ncc(-c3cc(F)c(-c4cn[nH]c4)cc3O)nn2)CC(C)(C)N1 [Compound 377] | 100 to 1000 | 1000 to 10000 | 1000 to 10000 | 100 to 1000 | 100 to 1000 | 100 to 1000 | – | – | – | – | – | – | 1000 to 10000 | 100 to 1000 | – | –
COc1cncc(-c2cc(O)c(-c3ccc(N4CC[C@H](NC5CCC5)C4)nn3)cc2F)c1 [Compound 224, 2-{6-[(3S)-3-(cyclobutylamino)pyrrolidin-1-yl]pyridazin-3-yl}-4-fluoro-5-(5-methoxypyridin-3-yl)phenol] | > 10000 | > 10000 | > 10000 | 1000 to 10000 | 1000 to 10000 | 1000 to 10000 | – | – | – | – | – | – | > 10000 | > 10000 | – | –
Cc1nnc(-c2cc(O)c(-c3ccc(N4CC[C@H](NCC5CC5)C4)nn3)cc2F)s1 [Compound 401] | 100 to 1000 | 1000 to 10000 | 1000 to 10000 | 100 to 1000 | 100 to 1000 | 100 to 1000 | – | – | – | – | – | – | 1000 to 10000 | 100 to 1000 | – | –

Reference: patent US20250333397A1 (REMIX THERAPEUTICS INC., priority 2021, published 2025)
